Experimental data taken from PubChem BioAssay AID328 (DTP/NCI, 2004).
“And” between values parts separate entries of the source, which are not always exact repeats. Equal values may be shown once. Inconclusive results and toxic doses are left out. How the source made its calls: active means survival T/C of 150% or more; inactive means T/C below 125% in these data.

System: BDF1 mice, P388 leukemia ip, median survival T/C
Test: NCI In Vivo Anticancer Drug Screen. Data for tumor model P388 Leukemia (intraperitoneal) in B6D2F1 (BDF1) mice
Details: endpoint: median survival time, higher = longer survival
In short: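 Compound-treated tumour-bearing mice were compared with vehicle-treated controls. Survival was recorded, and the value is the treated-group measurement divided by the control-group measurement (T/C).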

[1] = dose: 100.0 mg/kg/injection, schedule: Q01DX009 (ip), vehicle: Klucel (hydroxypropylcellulose) (HPC)
[2] = dose: 100.0 mg/kg/injection, schedule: Q04DX003 (ip), vehicle: Klucel (hydroxypropylcellulose) (HPC)
[3] = dose: 200.0 mg/kg/injection, schedule: Q01DX009 (ip), vehicle: Klucel (hydroxypropylcellulose) (HPC)
[4] = dose: 200.0 mg/kg/injection, schedule: Q04DX003 (ip), vehicle: Klucel (hydroxypropylcellulose) (HPC)
[5] = dose: 400.0 mg/kg/injection, schedule: Q01DX009 (ip), vehicle: Klucel (hydroxypropylcellulose) (HPC)
[6] = dose: 400.0 mg/kg/injection, schedule: Q04DX003 (ip), vehicle: Klucel (hydroxypropylcellulose) (HPC)
[7] = dose: 50.0 mg/kg/injection, schedule: Q01DX009 (ip), vehicle: saline
[8] = dose: 50.0 mg/kg/injection, schedule: Q04DX003 (ip), vehicle: Klucel (hydroxypropylcellulose) (HPC)
[9] = dose: 50.0 mg/kg/injection, schedule: Q01DX009 (ip), vehicle: saline with Tween-80
[10] = dose: 100.0 mg/kg/injection, schedule: Q01DX009 (ip), vehicle: saline with Tween-80
[11] = dose: 200.0 mg/kg/injection, schedule: Q01DX009 (ip), vehicle: saline with Tween-80
[12] = dose: 100.0 mg/kg/injection, schedule: Q04DX003 (ip), vehicle: saline with Tween-80
[13] = dose: 200.0 mg/kg/injection, schedule: Q04DX003 (ip), vehicle: saline with Tween-80
[14] = dose: 400.0 mg/kg/injection, schedule: Q04DX003 (ip), vehicle: saline with Tween-80
[15] = dose: 25.0 mg/kg/injection, schedule: Q01DX009 (ip), vehicle: saline with Tween-80
[16] = dose: 100.0 mg/kg/injection, schedule: Q04DX003 (ip), vehicle: saline
[17] = dose: 200.0 mg/kg/injection, schedule: Q04DX003 (ip), vehicle: saline
[18] = dose: 400.0 mg/kg/injection, schedule: Q04DX003 (ip), vehicle: saline
[19] = dose: 400.0 mg/kg/injection, schedule: Q01DX009 (ip), vehicle: saline with Tween-80
[20] = dose: 12.5 mg/kg/injection, schedule: Q01DX009 (ip), vehicle: Klucel (hydroxypropylcellulose) (HPC)
[21] = dose: 25.0 mg/kg/injection, schedule: Q01DX009 (ip), vehicle: Klucel (hydroxypropylcellulose) (HPC)
[22] = dose: 50.0 mg/kg/injection, schedule: Q01DX009 (ip), vehicle: Klucel (hydroxypropylcellulose) (HPC)

Measured: T/C

C=CCN(CC=C)c1ccccc1
inactive: [1] 104 % of control | [2] 100 % of control | [3] 109 % of control | [4] 100 % of control | [5] 122 % of control | [6] 112 % of control

C=CCN(CC=C)CCN(CC)CC
inactive: dose: 6.25 mg/kg/injection, schedule: Q01DX009 (ip), vehicle: saline 111 % of control | dose: 12.5 mg/kg/injection, schedule: Q01DX009 (ip), vehicle: saline 101 % of control | dose: 25.0 mg/kg/injection, schedule: Q01DX009 (ip), vehicle: saline 109 % of control | [7] 101 % of control

CNC(=O)C(C)C1C(=O)/C(=C(O)/C=C/C(C)=C\C(C)C2OC3(C)OC(C=CC34CO4)C2C)C(=O)N1C1CCC(O)C(C)O1 (stereo not drawn)
inactive: [7] 100 % of control | [3] 109 % of control

C=CCNC(=S)Nc1cc(Cl)ccc1C
inactive: [8] 95 % of control | [2] 100 % of control | [4] 109 % of control

OC(Nc1nccs1)C(Cl)(Cl)Cl (stereo not drawn)
inactive: [9] 104 % of control | [10] 110 % of control | [11] 94 % of control

CC1(NC(=O)N(CCCl)N=O)CCCC1
inactive: [13] 90 % of control
active: [12] 272 % of control

CCCCCCCCCCCCCSCCCCCCCCSCCCCCCCCCCCCC
inactive: dose: 100.0 mg/kg/injection, schedule: Q01DX001 (ip), vehicle: saline with Tween-80 95 % of control | dose: 200.0 mg/kg/injection, schedule: Q01DX001 (ip), vehicle: saline with Tween-80 90 % of control | dose: 400.0 mg/kg/injection, schedule: Q01DX001 (ip), vehicle: saline with Tween-80 100 % of control

Cc1cc(N(C)C)ccc1/C=C/c1ccnc2ccccc12
inactive: dose: 100.0 mg/kg/injection, schedule: Q04DX002 (ip), vehicle: saline with Tween-80 117 % of control | dose: 200.0 mg/kg/injection, schedule: Q04DX002 (ip), vehicle: saline with Tween-80 107 % of control

OCCc1ccccc1
inactive: dose: 100.0 mg/kg/injection, schedule: Q01DX009 (ip), vehicle: saline sonified 100 % of control | dose: 200.0 mg/kg/injection, schedule: Q01DX009 (ip), vehicle: saline sonified 100 % of control

CN(C)c1ccc2cc3ccc(N(C)C)cc3nc2c1
inactive: dose: 3.12 mg/kg/injection, schedule: Q04DX003 (ip), vehicle: water 93 % of control | dose: 6.25 mg/kg/injection, schedule: Q04DX003 (ip), vehicle: water 106 % of control | dose: 12.5 mg/kg/injection, schedule: Q04DX003 (ip), vehicle: water 99 % of control | dose: 25.0 mg/kg/injection, schedule: Q04DX003 (ip), vehicle: water 109 % of control | dose: 50.0 mg/kg/injection, schedule: Q04DX003 (ip), vehicle: water 115 % of control

CN(C)c1ccc(/C=C/c2ccnc3ccccc23)c(Cl)c1
inactive: [9] 102 % of control | [10] 96 % of control | [11] 88 % of control

CN(C)C1C(=O)C(C(N)=O)=C(O)C2(O)C(=O)C3=C(O)c4c(O)cccc4C(C)(O)C3CC12.O.O.O.[Al] (stereo not drawn)
inactive: [1] 101 % of control | [3] 92 % of control | [5] 121 % of control

CCCCCC#CC1OC12CCCCC2 (stereo not drawn)
inactive: [9] 124 % of control | [10] 119 % of control | [11] 102 % of control

CSc1cccc(NC(=O)Oc2cc(C)c(Cl)c(C)c2Cl)c1
inactive: dose: 6.25 mg/kg/injection, schedule: Q01DX009 (ip), vehicle: DMSO 117 % of control | dose: 12.5 mg/kg/injection, schedule: Q01DX009 (ip), vehicle: DMSO 102 % of control

CNC(=O)NC1C(O)C(CO)OC(OC)C1O (stereo not drawn)
inactive: dose: 100.0 mg/kg/injection, schedule: Q01DX001 (ip), vehicle: saline 118 % of control | dose: 200.0 mg/kg/injection, schedule: Q01DX001 (ip), vehicle: saline 100 % of control | dose: 400.0 mg/kg/injection, schedule: Q01DX001 (ip), vehicle: saline 104 % of control

O=C1NC(c2cccc3ccccc23)Nc2ccccc21 (stereo not drawn)
active: dose: 50.0 mg/kg/injection, schedule: Q01DX009 (ip), vehicle: water 169 % of control | dose: 100.0 mg/kg/injection, schedule: Q01DX009 (ip), vehicle: water 200 % of control
inactive: dose: 200.0 mg/kg/injection, schedule: Q01DX009 (ip), vehicle: water 104 % of control

O=c1[nH]c(=O)n(CC(O)c2ccc(Cl)s2)cc1F (stereo not drawn)
inactive: [13] 103 % of control | [14] 117 % of control

O=C(NNC1CCCCC1)c1ccccc1
inactive: [15] 95 % of control

COC(=O)c1c(C(=O)OC)c1=[N+]=[N-]
inactive: [9] 101 % of control | [10] 96 % of control | [11] 99 % of control

[I][Hg][CH2]C1COC([CH2][Hg][I])CO1 (stereo not drawn)
inactive: dose: 0.78 mg/kg/injection, schedule: Q01DX010 (ip), vehicle: saline 95 % of control | dose: 1.56 mg/kg/injection, schedule: Q01DX010 (ip), vehicle: saline 95 % of control and 118 % of control | dose: 3.13 mg/kg/injection, schedule: Q01DX010 (ip), vehicle: saline 100 % of control and 122 % of control | dose: 6.25 mg/kg/injection, schedule: Q01DX010 (ip), vehicle: saline 122 % of control | dose: 12.5 mg/kg/injection, schedule: Q01DX010 (ip), vehicle: saline 118 % of control

CS(=O)(=O)OCCN(CCOS(C)(=O)=O)c1ccc(C(=O)O)cc1
inactive: dose: 300.0 mg/kg/injection, schedule: Q04DX003 (ip), vehicle: saline with Tween-80 113 % of control
active: dose: 33.0 mg/kg/injection, schedule: Q01DX009 (ip), vehicle: saline with Tween-80 195 % of control | [9] 200 % of control | dose: 75.0 mg/kg/injection, schedule: Q01DX009 (ip), vehicle: saline with Tween-80 236 % of control

CCOC(=S)SCc1nc2ccccc2[nH]1
inactive: [16] 90 % of control | [17] 107 % of control | [18] 105 % of control

COc1ccc(NC(=O)Oc2ccc3c(C)cc(=O)oc3c2)c(OC)c1
active: [11] 155 % of control
inactive: [19] 100 % of control

S=c1[nH]c2ccccc2s1
inactive: [8] 109 % of control | dose: 100.0 mg/kg/injection, schedule: Q01DX001 (ip), vehicle: Klucel (hydroxypropylcellulose) (HPC) 100 % of control | [2] 100 % of control | dose: 200.0 mg/kg/injection, schedule: Q01DX001 (ip), vehicle: Klucel (hydroxypropylcellulose) (HPC) 108 % of control | [4] 100 % of control and 123 % of control | dose: 400.0 mg/kg/injection, schedule: Q01DX001 (ip), vehicle: Klucel (hydroxypropylcellulose) (HPC) 100 % of control | [6] 96 % of control

O=C1c2ccccc2S(=O)(=O)N1CCCBr
inactive: [20] 95 % of control | [21] 110 % of control | [22] 105 % of control | [2] 95 % of control | [4] 95 % of control | [6] 95 % of control

Cc1ccc(NC(=O)COc2ccc(Cl)cc2Cl)cc1Cl
inactive: [12] 100 % of control | [13] 90 % of control | [14] 90 % of control

O=C(Cc1ccccc1)OCCc1ccccc1
inactive: [20] 109 % of control | [21] 109 % of control | [22] 95 % of control | [2] 109 % of control | [4] 100 % of control | [6] 100 % of control

C=CC(=O)Oc1ccc(Cl)cc1
inactive: dose: 12.5 mg/kg/injection, schedule: Q04DX003 (ip), vehicle: saline with Tween-80 100 % of control | dose: 25.0 mg/kg/injection, schedule: Q04DX003 (ip), vehicle: saline with Tween-80 104 % of control | dose: 50.0 mg/kg/injection, schedule: Q04DX003 (ip), vehicle: saline with Tween-80 118 % of control

CCCCCC1=NC(C)(C(=O)OC)OO1 (stereo not drawn)
inactive: [15] 114 % of control | [9] 112 % of control

CC(C(=O)c1ccc(Br)cc1)C(Br)c1ccccc1 (stereo not drawn)
inactive: [9] 90 % of control | [10] 113 % of control | [16] 88 % of control | [11] 88 % of control | [17] 99 % of control | [19] 97 % of control | [18] 91 % of control
